Structures can show the parent of a compound that is named as a salt. Where two headings read alike, the source gives them in different places.
Columns and labels:
[1] = test system: Cullin-3 (CUL3) neddylation; assay: AlphaLISA assay for Cullin-3 (CUL3) neddylation in TF 1 cells; format: cell-based; conditions: 3 hours treatment
Outline: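 Neddylated CUL3 was quantified by AlphaLISA in lysates of TF 1 cells exposed for 3 h to test compound in IMDM without supplements. Percent inhibition set between vehicle and 1 μM DI-1548 positive control; IC50 derived by Hill-equation fitting of dose-response curves.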

[2] = biological target: DCN1 (DCUND1) protein PONY domain (Homo sapiens (Human), UniProt Q96GG9); assay: TR-FRET assay, DCN1 binding with FAM-labeled probe
Outline: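 First, the E. coli-derived PONY domain was biotinylated and paired with streptavidin Tb cryptate. Compounds in 0.1% DMSO were then added to DCN1 and FAM-probe (5 nM/20 nM, or 0.31 nM/900 nM total with 800 nM unlabelled) in TritonX, 200 mM NaCl buffer. Finally, TR-FRET ratios were recorded at 1, 5 and 24 hrs.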

[3] = 24 hr after treatment with compound, read-out: TR FRET IC50 24 hr
[4] = TR FRET IC50 1 hr (nM), 1 hr after treatment with compound
[5] = read-out: TR FRET IC50 1 hr, 1 hr after treatment with compound

DCN1 (DCUND1) protein PONY domain, sequence (Q96GG9 60-248): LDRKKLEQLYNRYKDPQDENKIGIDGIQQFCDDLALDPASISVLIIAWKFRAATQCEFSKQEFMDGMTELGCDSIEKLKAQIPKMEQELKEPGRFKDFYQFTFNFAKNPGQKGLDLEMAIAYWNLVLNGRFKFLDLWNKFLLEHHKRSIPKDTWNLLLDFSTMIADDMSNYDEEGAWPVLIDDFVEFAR

Row | SMILES | IC50 ([1]; Homo sapiens, TF-1, 3 h) [nM] | IC50 [2, 3] [nM] | IC50 [2, 4] [nM] | IC50 [2, 5] [nM] | IC50 [1] [nM]
1 | CCN1C(=O)[C@H](NC(=O)c2cccc(C(F)(F)F)c2)[C@H](c2ccc(F)cc2)c2c(C(=O)N3CCC[C@H]3C#N)nn(-c3cccc(OCCCN4CCC5(CC4)COC5)c3)c21 [Compound I-581] | > 1000 | 200 to 1000 | 1000 to 3000 | – | –
2 | CCN1C(=O)[C@H](NC(=O)c2cccc(C(F)(F)F)c2)[C@H](c2ccc(F)cc2)c2c(C(=O)N3CCC[C@H]3C#N)nn(-c3cccc(OCCN(C)C4COC4)c3)c21 [Compound I-584] | > 1000 | 1000 to 3000 | 1000 to 3000 | – | –
3 | CCN1C(=O)[C@@H](NC(=O)c2nc(C(F)(F)F)cs2)[C@@H](c2ccc(F)cc2)c2c(C(=O)N3CCC[C@H]3C#N)nn(C3CCOCC3)c21 [Compound I-586] | ≤ 100 | 200 to 1000 | 1000 to 3000 | – | –
4 | CCN1C(=O)[C@@H](NC(=O)c2cccc(C(F)(F)F)c2)[C@@H](C2CC2)c2c(C(=O)N(C)[C@H](C#N)CCN(C)C)nn(C3CCOCC3)c21 [Compound I-589] | ≤ 100 | ≤ 200 | – | ≤ 200 | –
5 | CCN1C(=O)[C@@H](NC(=O)c2cccc(C(F)(F)F)c2)[C@@H](C2CCC2)c2c(C(=O)N3[C@H](C#N)C[C@H]4C[C@H]43)nn(C3CCOCC3)c21 [Compound I-593] | ≤ 100 | ≤ 200 | – | ≤ 200 | –
6 | C#C[C@@H]1CCCN1C(=O)c1nn(C2CCOCC2)c2c1[C@H](C1CC1)[C@H](NC(=O)c1cccc(C(F)(F)F)c1)C(=O)N2CC [Compound I-594] | > 1000 | 1000 to 3000 | 1000 to 3000 | – | –
7 | CCN1C(=O)[C@@H](NC(=O)Cc2ccccc2)[C@@H](C2CC2)c2c(C(=O)N3[C@H](C#N)C[C@H]4C[C@H]43)nn(C3CCOCC3)c21 [Compound I-595] | > 1000 | 1000 to 3000 | 1000 to 3000 | – | –
8 | CCN1C(=O)[C@H](NC(=O)c2cccc(C(F)(F)F)c2)[C@@H](c2ccc(F)cc2)c2c(CN3C(=O)CC[C@H]3C#N)nn(-c3ccccc3)c21 [Compound I-596, N-((4S,5R)-3-(((S)-2-cyano-5-oxopyrrolidin-1-yl)methyl)-7-ethyl-4-(4-fluorophenyl)-6-oxo-1-phenyl-4,5,6,7-tetrahydro-1H-pyrazolo[3,4-b]pyridin-5-yl)-3-(trifluoromethyl)benzamide] | > 1000 | 1000 to 3000 | 1000 to 3000 | – | –
9 | CCN1C(=O)[C@H](NC(=O)c2cccc(C(F)(F)F)c2)[C@H](c2ccc(F)cc2)c2c([C@@H](C)NC#N)nn(C3CCOCC3)c21 [Compound I-597] | > 1000 | 1000 to 3000 | 1000 to 3000 | – | –
10 | CCN1C(=O)[C@H](NC(=O)c2cccc(C(F)(F)F)c2)[C@H](C)c2c(C(=O)N3[C@H](C#N)C[C@H]4C[C@H]43)nn(C3CCOCC3)c21 [Compound I-599] | 100 to 1000 | 1000 to 3000 | 1000 to 3000 | – | –
11 | CCN1C(=O)[C@@H](NC(=O)c2ccc3c(c2)COC3)[C@@H](C2CC2)c2c(C(=O)N3[C@H](C#N)C[C@H]4C[C@H]43)nn(C3CCOCC3)c21 [Compound I-600] | ≤ 100 | ≤ 200 | 200 to 1000 | – | –
12 | CCN1C(=O)[C@@H](NC(=O)c2ccc3ocnc3c2)[C@@H](C2CC2)c2c(C(=O)N3[C@H](C#N)C[C@H]4C[C@H]43)nn(C3CCOCC3)c21 [Compound I-601] | 100 to 1000 | 200 to 1000 | 1000 to 3000 | – | –
13 | CCN1C(=O)[C@@H](NC(=O)c2cccc3[nH]ncc23)[C@@H](C2CC2)c2c(C(=O)N3[C@H](C#N)C[C@H]4C[C@H]43)nn(C3CCOCC3)c21 [Compound I-602] | > 1000 | 1000 to 3000 | 1000 to 3000 | – | –
14 | CCN1C(=O)[C@@H](NC(=O)c2cccc(C(F)(F)F)c2)[C@@H](c2ccc(F)cc2)c2c(CN(C)C/C=C/C(=O)OC(C)(C)C)nn(-c3ccccc3)c21 [Compound I-604, tert-butyl (E)-4-((((4S,5S)-7-ethyl-4-(4-fluorophenyl)-6-oxo-1-phenyl-5-(3-(trifluoromethyl)benzamido)-4,5,6,7-tetrahydro-1H-pyrazolo[3,4-b]pyridin-3-yl)methyl)(methyl)amino)but-2-enoate] | > 1000 | 1000 to 3000 | 1000 to 3000 | – | –
15 | C=CC(=O)N[C@H](C)c1nn(-c2ccccc2)c2c1[C@H](c1ccc(F)cc1)[C@@H](NC(=O)c1nccc(C(F)(F)F)n1)C(=O)N2CC [Compound I-605] | > 1000 | 1000 to 3000 | 1000 to 3000 | – | –
16 | CCN1C(=O)[C@@H](NC(=O)c2cccc(C(F)(F)F)c2)[C@@H](c2ccc(F)cc2)c2c(CN(C)C/C=C/C(=O)N3CCCC3)nn(-c3ccccc3)c21 [Compound I-606] | > 1000 | 200 to 1000 | 200 to 1000 | – | –
17 | CCN1C(=O)[C@@](CO)(NC(=O)c2cccc(C(F)(F)F)c2)[C@@H](c2ccc(F)cc2)c2c([C@@H](C)NC#N)nn(-c3ccccc3)c21 [Compound I-608] | > 1000 | ≤ 200 | 1000 to 3000 | – | –
18 | CCN1C(=O)[C@H](NC(=O)c2cccc(C(F)(F)F)c2)[C@@H](c2ccc(F)cc2)c2c([C@@H](C)N(C#N)CCCN(C)C)nn(-c3ccccc3)c21 [Compound I-609, N-((4S,5R)-3-((R)-1-(N-(3-(dimethylamino)propyl)cyanamido)ethyl)-7-ethyl-4-(4-fluorophenyl)-6-oxo-1-phenyl-4,5,6,7-tetrahydro-1H-pyrazolo[3,4-b]pyridin-5-yl)-3-(trifluoromethyl)benzamide formate] | > 1000 | ≤ 200 | – | ≤ 200 | –
19 | CCN1C(=O)[C@H](NC(=O)c2cccc(C(F)(F)F)c2)[C@H](c2ccc(F)cc2)c2c(C(=O)N3CCC[C@H]3C#N)nn(-c3ccccc3)c21 [Compound I-611] | > 1000 | 1000 to 3000 | 1000 to 3000 | – | –
20 | CCN1C(=O)[C@@H](NC(=O)c2cccc(C(F)(F)F)c2)[C@@H](c2ccc(F)cc2)c2c(CN(C#N)CCCN3CCN(C4COC4)CC3)nn(-c3ccccc3)c21 [Compound I-614] | ≤ 100 | ≤ 200 | 200 to 1000 | – | –
21 | CCN1C(=O)[C@H](NC(=O)c2cccc(C(F)(F)F)c2)[C@H](c2ccc(F)cc2)c2c(C(=O)N3CCC[C@H]3C#N)nn(-c3cccc(OCCN4CCC5(CC4)COC5)c3)c21 [Compound I-616] | > 1000 | 1000 to 3000 | 1000 to 3000 | – | –
22 | CCN1C(=O)[C@@H](NC(=O)c2cccc(C(F)(F)F)c2)[C@@H](C2CC2)c2c(C(=O)N(CC#N)C3CC3)nn(-c3ccccc3)c21 [Compound I-619] | 100 to 1000 | ≤ 200 | 1000 to 3000 | – | –
23 | CCN1C(=O)[C@@H](NC(=O)c2cccc(C(F)(F)F)c2)[C@@H](C2CC2)c2c(C(=O)N3[C@H](C)CC[C@H]3C#N)nn(C3CCOCC3)c21 [Compound I-621] | > 1000 | 1000 to 3000 | 1000 to 3000 | – | –
24 | CCN1C(=O)[C@@H](NC(=O)c2cccc(C(F)(F)F)c2)[C@@H](c2ccc(F)cc2)c2c(CN3C(=O)CC[C@H]3C#N)nn(-c3ccccc3)c21 [Compound I-622, N-((4S,5S)-3-(((S)-2-cyano-5-oxopyrrolidin-1-yl)methyl)-7-ethyl-4-(4-fluorophenyl)-6-oxo-1-phenyl-4,5,6,7-tetrahydro-1H-pyrazolo[3,4-b]pyridin-5-yl)-3-(trifluoromethyl)benzamide] | > 1000 | 1000 to 3000 | 1000 to 3000 | – | –
25 | CCN1C(=O)[C@@H](NC(=O)c2cccn(C3CC3)c2=O)[C@@H](C2CC2)c2c(C(=O)N3[C@H](C#N)C[C@H]4C[C@H]43)nn(C3CCOCC3)c21 [Compound I-624] | – | 200 to 1000 | 200 to 1000 | – | ≤ 100
26 | CCN1C(=O)[C@@H](NC(=O)c2cccn(C3CC3)c2=O)[C@@H](C2CC2)c2c(C(=O)N3[C@H](C#N)C[C@H]4C[C@H]43)nn(C3CCOCC3)c21 [Compound I-625] | – | 1000 to 3000 | 1000 to 3000 | – | > 1000
27 | CCN1C(=O)[C@@H](NC(=O)c2cccc(C(F)(F)F)c2)[C@@H](C2CC2)c2c(C(=O)N3CC(=O)C[C@H]3C#N)nn(C3CCOCC3)c21 [Compound I-626, N-((4S,5S)-3-((S)-2-cyano-4-oxopyrrolidine-1-carbonyl)-4-cyclopropyl-7-ethyl-6-oxo-1-(tetrahydro-2H-pyran-4-yl)-4,5,6,7-tetrahydro-1H-pyrazolo[3,4-b]pyridin-5-yl)-3-(trifluoromethyl)benzamide] | ≤ 100 | ≤ 200 | – | ≤ 200 | –

From patent US20250163057A1, “DCN-1 MODULATING COMPOUNDS AND METHODS OF USE THEREOF” (Cellarity, Inc., priority 2023, published 2025)
